Patent US5985937A, “Use of 2,4-distributed phenol derivatives as 5-lipoxygenase inhibitors” (priority 1994, dated 1999)

system: dioxygenases; assay: not given; conditions: background statement; cited from earlier work

SMILES	inhibition of dioxygenases
CC(Cc1ccc(O)c(O)c1)C(C)Cc1ccc(O)c(O)c1 (centres unmarked) [NDGA, nordihydroguayaretic acid]	inhibitor of all dioxygenases

system: not given; assay: not given; conditions: background statement; cited from earlier work

SMILES	toxicity
CC(C(=O)O)c1ccc2oc(-c3ccc(Cl)cc3)nc2c1 (centres unmarked) [benoxaprofen, reference compound]	much too toxic
COc1c(OC)c(OC(C)=O)c2cc(Cl)ccc2c1OC(C)=O [lonapalene]	much too toxic

system: 5-LO; assay: not given; conditions: background statement; cited from earlier work

SMILES	5-LO inhibition
CC(Cc1ccc(O)c(O)c1)C(C)Cc1ccc(O)c(O)c1 (centres unmarked) [NDGA, nordihydroguayaretic acid]	potent 5-LO inhibitor

target: T1, 5-lipoxygenase (5-LO) (Homo sapiens, UniProt P09917); assay: 5-LO inhibiting activity in human polymorphonuclear leukocytes ([14C]-arachidonic acid, A23187; HPLC of eicosanoids); type: cell-based; conditions: 25 μM concentration; read-out: 5-LO inhibitory activity, approximate inhibition percentage
T1 construct: endogenous in cells; host or cells: human polymorphonuclear leukocytes from donor blood
T1 sequence (P09917 1-674): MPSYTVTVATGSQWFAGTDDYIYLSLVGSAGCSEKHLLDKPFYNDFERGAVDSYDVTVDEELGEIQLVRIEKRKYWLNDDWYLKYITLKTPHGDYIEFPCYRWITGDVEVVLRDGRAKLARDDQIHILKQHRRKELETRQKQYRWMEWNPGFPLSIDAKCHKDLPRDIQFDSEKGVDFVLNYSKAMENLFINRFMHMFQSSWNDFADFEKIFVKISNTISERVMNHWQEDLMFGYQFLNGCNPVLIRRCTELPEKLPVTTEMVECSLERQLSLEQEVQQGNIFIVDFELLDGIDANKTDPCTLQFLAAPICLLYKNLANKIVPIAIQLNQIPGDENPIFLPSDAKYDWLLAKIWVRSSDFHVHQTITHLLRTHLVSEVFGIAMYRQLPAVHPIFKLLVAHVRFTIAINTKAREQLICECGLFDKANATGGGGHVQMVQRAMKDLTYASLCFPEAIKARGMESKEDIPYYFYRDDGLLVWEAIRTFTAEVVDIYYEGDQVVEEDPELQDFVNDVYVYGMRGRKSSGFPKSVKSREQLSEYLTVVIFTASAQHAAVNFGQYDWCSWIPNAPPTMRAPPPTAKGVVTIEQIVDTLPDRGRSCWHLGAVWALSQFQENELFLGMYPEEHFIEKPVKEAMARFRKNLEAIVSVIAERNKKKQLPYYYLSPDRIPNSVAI
Method: In order to show the 5-LO inhibiting activity of the products of the present invention, a specific test based on human polymorphonuclear leukocytes is chosen.
5-LO Inhibiting Activity in Polymorphonuclear Leukocytes
Blood was obtained from donors which had not received medication during the ten days previous to the extraction. The blood was treated with an anticoagulant (ACD-A) and was centrifuged at 200 g during 12 min at room temperature, separating the supernatant. A solution of Dextran T-500 in physiological serum was added to the pellet, in order to obtain a final concentration of 0.6% w/v, and was allowed to sediment during 40 min. The supernatant was centrifuged at 180 g during 10 min at room temperature. The pellet was resuspended in 5 ml of Hank's buffer, pH 7.4. After the addition of 3 ml of Lymphoprep, the suspension was centrifuged at 450 g during 30 min, and the layers of supernatant were discarded. The next step was the lysis of the erythrocytes present by adding 2 ml of a saline solution. The resulting volume was adjusted to 10 ml with Hank's buffer, pH 7.4. The solution was centrifuged during 10 min at 180 g; the supernatant was discarded and the resulting pellet was resuspended in 1-2 ml of Hank's buffer, pH 7.4. The cellular density was determined using a haemocytometer using the procedure of microcollection Unopette to determine the levels of platelet contamination. Cellular density was adjusted to 2×10^7 cells/ml with Hank's buffer, pH 7.4 and CaCl2 was added to a final concentration of 1.5 mM.
Aliquots (0.5 ml) of the polymorphonuclear leukocytes suspensions, obtained as described in part (a), were incubated during 5 min at 37° C. in the absence (control) and in the presence of three different concentrations of each drug. Afterwards an ethanol solution of [^14 C]-arachidonic acid and A23187 ionophore was added to obtain a final concentration of 10 and 5 μM, respectively. After 5 min of incubation the reaction was stopped by addition of 0.5 ml of ice-cold ethanol. Samples were centrifuged during 2 min at 1500 g, and the supernatants were kept at -80° C. until analyzed. Controls were carried out using the polymorphonuclear leukocyte suspensions aliquots in the presence of the solvent (DMSO) only.
The analysis of the products from the transformation of arachidonic acid through the action of the lipoxygenase (these products being the eicosanoids) was carried out using high pressure liquid chromatography (HPLC), in a reverse phase column (Ultrasphere-ODS, Beckman), injecting 500 μl of the supernatants obtained from the incubations. Elution was carried out using an isocratic mix of mathanol:water:triethylamine:trifluoroacetic acid, 75:25:0.05:0.10, with a flux of 1 ml/min. Detection was carried out with a radioactivity detector with a liquid scintillation cell on-line coupled with the column.

inhibition at 25 µM [%]	SMILES
87	CC(C)(C)c1cc(I)cc(I)c1O [Bobel-9, 2-tert-butyl-4,6-diiodofenol]
73	Oc1c(Cl)cc(I)cc1I [Bobel-10, 2-chloro-4,6-diiodophenol]
88	Oc1c(Br)cc(I)cc1I [Bobel-11, 2-bromo-4,6-diiodophenol]
97	Oc1c(I)cc(I)cc1C(F)(F)F [Bobel-12, 2-trifluoromethyl-4,6-diiodophenol]
85	CC(C)c1cc(I)c(O)c(I)c1 [Bobel-14, 4-isopropyl-2,6-diiodophenol]
85	CC(C)(C)c1cc(I)c(O)c(I)c1 [Bobel-15, 4-tert-butyl-2,6-diiodophenol]
97	Oc1c(I)cc(-c2ccccc2)cc1I [Bobel-16, 4-phenyl-2,6-diiodophenol]
80	Oc1c(I)cc(Cl)cc1I [Bobel-18, 4-chloro-2,6-diiodophenol]
100	Oc1c(I)cc(C(F)(F)F)cc1I [Bobel-20, 4-trifluoromethyl-2,6-diiodophenol]
97	Cc1c(I)cc(I)c(O)c1I [Bobel-25, 3-methyl-2,4-6-triiodophenol]
94	CCc1c(I)cc(I)c(O)c1I [Bobel-26, 3-ethyl-2,4,6-triiodophenol]
100	Oc1c(I)cc(I)c(F)c1I [Bobel-29, 3-fluoro-2,4,6-triiodophenol]
90	Oc1c(I)cc(I)c(Cl)c1I [Bobel-30, 3-chloro-2,4,6-triiodophenol]

Second part, the compound before the results:

SMILES	inhibition at 25 µM [%]
CC(C)(C)c1ccc(O)c(I)c1 [Bobel-2, 4-tert-butyl-2-iodophenol]	80
CC(C)(C)c1cc(I)ccc1O [Bobel-3, 2-tert-butyl-4-iodophenol]	96
CC(C)c1cc(I)cc(C(C)C)c1O [Bobel-4, 2,6-diisopropyl-4-iodophenol]	94
CCc1cc(I)cc(I)c1O [Bobel-7, 2-ethyl-4,6-diiodophenol]	74
CC(C)c1cc(I)cc(I)c1O [Bobel-8, 2-isopropyl-4,6-diiodophenol]	95

same assay, conditions: LTB4, 6-trans-LTB4, 5-HETE, 20-OH-LTB4; FIGS. 3 and 4

SMILES	concentration of biosynthesis products versus concentration of the drug
CC(C(=O)O)c1ccc2oc(-c3ccc(Cl)cc3)nc2c1 (centres unmarked) [benoxaprofen, reference compound]	decreased in approximately linear with the concentration of the drug used
CC(=O)N1CCN(c2ccc(OCC3COC(Cn4ccnc4)(c4ccc(Cl)cc4Cl)O3)cc2)CC1 (centres unmarked) [ketaconozale, ketoconazole, reference compound]	decreased in approximately linear with the concentration of the drug used

same assay, conditions: human polymorphonuclear leukocytes; AA 10 μM, A23187 5 μM; average of five different peaks; read-out: IC50 (concentration of the drug which inhibits 50% of the AA converted by 5-LO)

SMILES	IC50 [µM]
CC(C(=O)O)c1ccc2oc(-c3ccc(Cl)cc3)nc2c1 (centres unmarked) [benoxaprofen, reference compound]	92
CC(=O)N1CCN(c2ccc(OCC3COC(Cn4ccnc4)(c4ccc(Cl)cc4Cl)O3)cc2)CC1 (centres unmarked) [ketaconozale, ketoconazole, reference compound]	102

same assay, conditions: in words

SMILES	5-LO inhibiting activity of products of monoiodination of phenol (control tests)
Oc1ccccc1I [Bobel 2-iodophenol, 2-iodophenol, reference compound]	negligible activity
Oc1cccc(I)c1 [Bobel 3-iodophenol, 3-iodophenol, reference compound]	negligible activity
Oc1ccc(I)cc1 [Bobel 4-iodophenol, 4-iodophenol, reference compound]	negligible activity
